Data: US20250361241A1, “HPK1 INHIBITOR AND MEDICAL USE THEREOF” (Betta Pharmaceuticals Co., Ltd., priority 2022, published 2025)

Legend:
Jurkat cells = assay: Jurkat IL-2 secretion detection (anti-CD3/CD28 beads, ELISA); type: cell-based, human; settings: for Maximum induction factor: IL-2 secretion, Jurkat cells; for EC3x: concentration for IL-2 secretion of Jurkat cells to reach 3 times the baseline, 20 h
Procedure: Pharmacological Experiment 5: Jurkat IL-2 Secretion Detection
• (1) Take the cultured Jurkat cells, adjust the density to 1×10^6 cells/mL, and inoculate them in a flat-bottom […] plate (Jet Biofil, TCP011096), with 100 μL per well, • (2) Add 50 μL of the test compound to each well and incubate at 37° C. for 30 min; • (3) Take human anti-CD3/CD28 magnetic beads (Miltenyi, 130-091-441), wash once with RPMI-1640 complete medium, and adjust the density to 4×106 beads/mL for later use; • (4) After the compound incubation, 50 μL of anti-human CD3/CD28 magnetic beads were added to each well and cultured at 37° C. for 20 h, • (5) The cell culture supernatant was obtained and the IL-2 secretion was detected using the Human IL-2 DuoSet ELISA kit (R&D, DY008); • (6) The log value of the concentration was used as the X-axis and the IL-2 secretion was used as the Y-axis. The “log (agonist) vs. response-variable slope” equation of the analysis software GraphPad Prism 7 was used to fit the dose-effect curve, thereby obtaining the […] and the […]

HPK1 [1] = biological target: T1, HPK1 (Homo sapiens (Human), UniProt Q92918); assay: HPK1 enzyme activity detection (1 mM ATP system), ADP-Glo, Pharmacological Experiment 1; type: biochemical
T1 sequence (Q92918 whole entry, species assumed): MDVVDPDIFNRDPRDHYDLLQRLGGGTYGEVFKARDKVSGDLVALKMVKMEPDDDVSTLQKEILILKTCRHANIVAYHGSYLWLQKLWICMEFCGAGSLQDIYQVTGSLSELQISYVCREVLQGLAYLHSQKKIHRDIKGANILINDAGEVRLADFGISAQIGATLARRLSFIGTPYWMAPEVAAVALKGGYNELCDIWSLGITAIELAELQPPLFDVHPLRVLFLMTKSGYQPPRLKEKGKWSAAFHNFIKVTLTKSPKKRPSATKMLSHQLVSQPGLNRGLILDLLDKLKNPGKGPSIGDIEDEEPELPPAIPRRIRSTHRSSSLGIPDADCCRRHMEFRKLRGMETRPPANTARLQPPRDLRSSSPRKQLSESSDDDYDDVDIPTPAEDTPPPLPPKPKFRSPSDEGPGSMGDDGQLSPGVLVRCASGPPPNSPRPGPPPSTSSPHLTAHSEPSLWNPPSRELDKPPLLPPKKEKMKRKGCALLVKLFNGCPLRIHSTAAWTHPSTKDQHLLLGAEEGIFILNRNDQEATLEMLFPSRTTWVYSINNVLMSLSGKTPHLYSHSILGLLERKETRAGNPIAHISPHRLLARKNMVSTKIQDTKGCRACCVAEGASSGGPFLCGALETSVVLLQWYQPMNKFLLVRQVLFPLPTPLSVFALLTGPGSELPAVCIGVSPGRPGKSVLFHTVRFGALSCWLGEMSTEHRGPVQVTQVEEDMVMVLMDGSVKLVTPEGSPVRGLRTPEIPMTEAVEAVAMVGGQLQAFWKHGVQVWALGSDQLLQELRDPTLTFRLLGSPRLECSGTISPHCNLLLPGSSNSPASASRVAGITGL
Procedure: Pharmacological Experiment 1: HPK1 Enzyme Activity Detection (1 mM ATP System)
• (1) Take ADP-GloTMKinase Assay Kit (Promega, Cat. No. V9102) to prepare 4× kinase buffer. • (2) Compound gradient dilution: The compound to be tested is diluted 3-fold, and 11 gradient concentrations are set, and each concentration is set for duplicate well detection. Serial dilutions were made in a 384-well plate to the corresponding 100×final concentration solution, and then 0.1 μL was transferred to the 384-well reaction plate for testing using Echo. Transfer 0.1 μL of 100% DMSO to the smallest and largest wells. • (3) Prepare HPK1 enzyme working solution using 4× kinase buffer. • (4) Add 5 μL of HPK1 enzyme working solution to each well and 5 μL of 1× kinase buffer to the smallest well. Centrifuge at 1000 rpm for 1 min and incubate at 25° C. for 15 min. • (5) During the incubation period, prepare the substrate working solution using 4× kinase buffer. • (6) Add 5 μL of substrate working solution containing 1 mM ATP to each well of the reaction plate, centrifuge at 1000 rpm for 1 min, and incubate at 25° C. for 60 min. • (7) At the end of incubation, add 5 μL of ADP Glo reagent to each well. Centrifuge at 1000 rpm for 1 min and incubate at 25° C. for 60 min. • (8) Add 10 μL of detection solution to each well, centrifuge at 1000 rpm for 1 min, and incubate at 25° C. for 60 min. • (9) Read using EnVision.
Inhibition rate calculation formula:
[formula] • Vehicle: Reading value of DMSO control well • Blank: No enzyme well reading • Largest well: Reading value of DMSO control well • Minimum well: No enzyme well reading
The log value of the concentration was used as the X-axis and the percentage inhibition rate was used as the Y-axis. The “log (inhibitor) vs. response—variable slope” of the analysis software GraphPad Prism 5 was used to fit the dose-effect curve to obtain the IC 50 value of the compound's inhibition of kinase binding.
See Table 1 for the enzymatic IC 50 data of the example compounds on HPK1.

HPK1 [2] = biological target: T1, HPK1; assay: HPK1 enzyme activity detection (1 mM ATP system), ADP-Glo with MBP substrate, Pharmacological Experiment 2; type: biochemical
Method in brief: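 Compound in DMSO preincubated with HPK1 for 15 min at 25 °C, then reaction started with ATP (1 mM system) and MBP substrate for 60 min at 25 °C. ADP formed quantified by ADP-Glo luminescence; IC50 derived from percentage inhibition.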

GLK = GLK (Homo sapiens (Human), UniProt Q8IVH8); assay: GLK kinase assay (1 mM ATP system), ADP-Glo; type: biochemical
Chain of GLK (Q8IVH8 whole entry, species assumed): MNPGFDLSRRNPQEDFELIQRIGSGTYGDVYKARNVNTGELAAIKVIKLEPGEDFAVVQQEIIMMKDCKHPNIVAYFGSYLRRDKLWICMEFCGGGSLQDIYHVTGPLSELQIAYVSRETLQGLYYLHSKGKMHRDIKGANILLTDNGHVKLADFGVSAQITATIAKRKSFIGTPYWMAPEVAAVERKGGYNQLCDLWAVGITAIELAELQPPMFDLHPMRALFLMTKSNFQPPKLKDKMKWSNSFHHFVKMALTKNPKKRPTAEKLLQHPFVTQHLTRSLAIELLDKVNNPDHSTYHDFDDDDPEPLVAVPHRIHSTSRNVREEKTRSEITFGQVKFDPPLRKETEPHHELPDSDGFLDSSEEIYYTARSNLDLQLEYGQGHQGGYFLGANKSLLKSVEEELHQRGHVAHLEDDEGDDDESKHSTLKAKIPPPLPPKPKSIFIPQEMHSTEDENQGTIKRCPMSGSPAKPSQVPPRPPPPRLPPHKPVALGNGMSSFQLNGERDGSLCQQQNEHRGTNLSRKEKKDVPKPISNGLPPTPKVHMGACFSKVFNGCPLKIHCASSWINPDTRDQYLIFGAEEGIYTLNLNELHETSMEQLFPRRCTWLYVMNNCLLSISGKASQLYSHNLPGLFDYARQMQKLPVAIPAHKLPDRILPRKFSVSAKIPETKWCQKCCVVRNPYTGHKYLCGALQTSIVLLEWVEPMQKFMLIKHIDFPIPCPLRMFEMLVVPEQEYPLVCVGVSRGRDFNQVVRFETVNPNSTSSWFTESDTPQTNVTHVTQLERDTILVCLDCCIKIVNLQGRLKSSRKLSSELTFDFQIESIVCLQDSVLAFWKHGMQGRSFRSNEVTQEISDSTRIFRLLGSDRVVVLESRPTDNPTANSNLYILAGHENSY
Method in brief: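 GLK kinase reaction with 1 mM ATP and MBP substrate ran 60 min at 25 °C after 15 min preincubation of enzyme with compound. ADP formed was detected by ADP-Glo luminescence; percent inhibition used to derive IC50.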

[3] = tested on: human peripheral blood mononuclear cells; assay: Detection of IFN-γ secretion in human peripheral blood mononuclear cells (anti-CD3/CD28 beads, ELISA); type: cell-based; settings: for Maximum induction factor: IFN-γ secretion, human PBMC; for EC3x: concentration for IFN-γ secretion of human PBMC to reach 3 times the baseline, 3 days
Procedure: Pharmacological Experiment 4: Detection of IFN-γ Secretion in Human Peripheral Blood Monocytes
• (1) Take human peripheral blood mononuclear cells frozen in liquid nitrogen, thaw in a 37° C. water bath, add 5 mL of preheated RPMI-1640 complete medium (containing 10% fetal bovine serum and penicillin/streptomycin), centrifuge at 500 g for 10 minutes, and discard the supernatant; • (2) Resuspend the cells in RPMI-1640 complete medium, adjust the density to 5×10^6 cells/mL, inoculate in a low-adhesion 6-well plate (Corning, 3471), and culture at 37° C. for 2 days; • (3) Collect cultured human peripheral blood mononuclear cells, centrifuge at 500 g for 10 min, and discard the supernatant; • (4) Resuspend the cells in RPMI-1640 complete medium, adjust the density to 1×10^6 cells/mL, and inoculate them in a round-bottom 96-well plate (Jet Biofil, TCP-002-096), with 100 μL per well; • (5) Add 50 μL of the test compound to each well and incubate at 37° C. for 30 min; • (6) Take human anti-CD3/CD28 magnetic beads (Miltenyi, 130-091-441), wash once with RPMI-1640 complete medium, and adjust the density to 0.5×106 beads/mL for later use; • (7) After the compound incubation, 50 μL of anti-human CD3/CD28 magnetic beads were added to each well and cultured at 37° C. for 3 days, • (8) The cell culture supernatant was obtained and the IFN-γ secretion was detected using the Human IFN-gamma DuoSet ELISA kit (R&D, DY285B-05); • (9) The log value of concentration was used as the X-axis and the IFN-γ secretion amount was used as the Y-axis. The “log (agonist) vs. response−variable slope” equation of the analysis software GraphPad Prism 7 was used to fit the dose-effect curve, thereby obtaining the EC3x value and the maximum induction factor of the compound for the secretion of IFN-γ from human peripheral blood mononuclear cells to reach 3 times the baseline.

[4] = tested on: mouse colon cancer cell CT26; assay: Efficacy in CT26 CDX model mice (subcutaneous homologous transplant tumor); type: in vivo, Balb/c mouse; settings: after 21 days
Procedure: Pharmacological Experiment 8; Study on the Efficacy of the Compound in CT26CDX Model Mice […] The first group (G1) was a vehicle control group (10% propylene glycol/5% HS15/85% glucose). The second group (G2) was the control compound D1-administered group. […] Note: PO stands for oral gavage, QD stands for once daily dosing, and BID stands for twice daily dosing. Tumor size and mouse body weight were measured twice a week during the experiment, and the weight of the animals on that day was used as a reference for each drug administration. The tumor size was measured by using a vernier caliper to measure the length (a) and width (b) of the tumor. The tumor volume (TV) was calculated using the following formula: TV=a*b2/2 After 21 days of administration, the tumor growth inhibition rate (TGI) of each administration group is shown in Table 10.

[5] = PK study of compound in dogs; type: in vivo; settings: Beagle dog
Procedure: Pharmacological Experiment 6: PK Study of Compound in Dogs The compound was mixed with a solvent of saline or 10% DMSO/5% Solutol/85% saline or 10% DMSO/10% Solutol/80% saline (specific solvents are shown in the table below), vortexed and sonicated to prepare a clear oral solution. […] The drug concentration was analyzed by LC-MS/MS method, and the pharmacokinetic parameters were calculated using Phoenix WinNolin software (Pharsight, USA).

[6] = PK study of compound in monkeys; type: in vivo; settings: crab-eating monkey; for IV Plasma Cl_obs: IV 1 mg/kg
Procedure: Pharmacological Experiment 7: PK Study of Compound in Monkeys
The drug concentration was analyzed by LC-MS/MS method, and the pharmacokinetic parameters were calculated using Phoenix WinNolin software (Pharsight, USA).

[7] = PO 5 mg/kg, DMSO/Solutol/saline
[8] = column beside IV plasma Cl_obs (IV 1 mg/kg)

SMILES	Maximum induction factor (Jurkat cells)	EC3x (Jurkat cells) [nM]	IC50 (HPK1 [2]) [nM]	IC50 (GLK) [nM]	Maximum induction factor [3]	EC3x [3] [nM]	TGI ([4]; 75 mg/kg PO QD) [%]	IV Plasma Cl_obs [6] [mL/min/kg]	other results
CN(C)C1CC2(CCOCC2)c2ccc(Nc3ccc(-c4cnc5cc(F)ccn45)c4c3C(=O)NC4)nc21 (stereo not shown) [Compound 2, 7-(7-(DIMETHYLAMINO)-2′,3′,5′,6,6′,7-HEXAHYDROSPIRO[CYCLOPENTYL]PYRIDINE-5,4′-PYRAN]-2-YL)AMINO)-4 (7-FLUOROIMIDAZOLE[1,2-A]PYRIDIN-3-YL)ISOINDOL-1-ONE]	10	345	11.2	1170	5.9	69			IC50 (HPK1 [1]): 7.01 nM
CN(C)[C@@H]1CC2(CCOCC2)c2ccc(Nc3ccc(-c4cnc5cc(F)ccn45)c4c3C(=O)NC4)nc21 [Compound 2B, (R)-7-((7-(DIMETHYLAMINO)-2′,3′,5′,6,6′,7-HEXAHYDROSPIRO[CYCLOPENTADIENYL[B]PYRIDINE-54′-PYRAN]-2-YL)AMINO)-4-(7-FLUOROIMIDAZO[1,2-A]PYRIDIN-3-YL)ISOINDOLIN-1-ONE]	10.9	90.7	1.02	464	7.7	22	70	6.16	TGI ([4]; 25 mg/kg PO QD): 59%; TGI ([4]; 75 mg/kg PO BID): 90%; Bioavailability F % [5, 7]: 48.4%; PO Plasma AUC [5, 7]: 1082 ng·h/mL; T1/2 [5, 7]: 1.65 h; Bioavailability F % ([6]; IV 1 mg/kg and PO 5 mg/kg): 50.2%; PO Plasma AUC ([6]; PO 5 mg/kg): 6302 ng·h/mL; T1/2 [6, 8]: 8.81 h
CN(C)Cc1nc(Nc2ccc(-c3cnc4cc(F)ccn34)c3c2C(=O)NC3)ccc1C1CCOCC1 [Compound D1, reference compound]	8.1	544			4.6	528	38	17.6	AUC ([5]; plasma, PO 10 mg/kg, saline): 396 ng·h/mL; half-life ([5]; plasma, PO 10 mg/kg, saline): 3.19 h; bioavailability ([5]; plasma, PO 10 mg/kg, saline, read-out: Bioavailability F %): 11.6%; half-life [6, 8]: 4.01 h; AUC ([6]; plasma, PO 5 mg/kg): 1720 ng·h/mL
